Results from ChEMBL document CHEMBL3885861, “Open TG-GATES”.

Species on record: Rattus norvegicus
Assay: Open TG-GATES - Regimen: Daily Repeat
Format: toxicity, organism-based, Sprague-Dawley
Set-up: regimen Daily Repeat, gender Male, age 6 weeks
Conditions: in vivo, po, 3 mg/kg, route gavage, dose level Low; for APTT / Bas / Eos / Fbg / Hb / Ht / Lym / MCH / MCHC / MCV / Mono / Neu / PT / Plat / RBC / Ret / WBC: tissue Blood; for KIDNEY_L / KIDNEY_R / KIDNEY_TOTAL: tissue Kidney; for LIVER: tissue Liver; for A/G / ALP / ALT / AST / BUN / CRE / Ca / Cl / DBIL / GLC / IP / K / LDH / Na / PL / RALB / TBIL / TC / TG / TP / gamma-GTP: tissue Plasma

Cn1cnc([N+](=O)[O-])c1Sc1ncnc2nc[nH]c12 [AZATHIOPRINE] gave a TERMINAL_BW (72 h, time 3 day) of 215.2 g, an APTT (72 h, time 3 day) of 20.9 s and a Bas (72 h, time 3 day) of 0%. For the same molecule, the Eos (72 h, time 3 day) was 0.4%, the Fbg (72 h, time 3 day) was 312.4 mg/dL and the Hb (72 h, time 3 day) was 13 g/dL. The Ht (72 h, time 3 day) was 38.6%, the Lym (72 h, time 3 day) was 83.6% and the MCH (72 h, time 3 day) was 22 pg. The MCHC (72 h, time 3 day) was 33.6%, the MCV (72 h, time 3 day) was 65.4 fL and the Mono (72 h, time 3 day) was 1.8%. For the same molecule, the Neu (72 h, time 3 day) was 13%, the PT (72 h, time 3 day) was 16.2 s and the Plat (72 h, time 3 day) was 125.6 x10_4/uL. For the same molecule, the RBC (72 h, time 3 day) was 590 x10_4/ul, the Ret (72 h, time 3 day) was 7.5% and the WBC (72 h, time 3 day) was 81.3 x10_2/uL. It also gave a KIDNEY_L (72 h, time 3 day) of 1 g, a KIDNEY_R (72 h, time 3 day) of 1 g and a KIDNEY_TOTAL (72 h, time 3 day) of 1.9 g. The LIVER (72 h, time 3 day) was 10.5 g, the A/G (72 h, time 3 day) was 1.3 and the ALP (72 h, time 3 day) was 1666 IU/L. It also gave an ALT (72 h, time 3 day) of 45 IU/L, an AST (72 h, time 3 day) of 73.2 IU/L and a BUN (72 h, time 3 day) of 17.6 mg/dL. The CRE (72 h, time 3 day) was 0.1 mg/dL, the Ca (72 h, time 3 day) was 11.3 mg/dL and the Cl (72 h, time 3 day) was 106.6 meq/L. It also gave a DBIL (72 h, time 3 day) of 0 mg/dL, a GLC (72 h, time 3 day) of 188.8 mg/dL and an IP (72 h, time 3 day) of 6.7 mg/dL. It also gave a K (72 h, time 3 day) of 4.4 meq/L, an LDH (72 h, time 3 day) of 192.8 IU/L and a Na (72 h, time 3 day) of 143.4 meq/L. The PL (72 h, time 3 day) was 142.8 mg/dL, the RALB (72 h, time 3 day) was 3.1 g/dL and the TBIL (72 h, time 3 day) was 0.008 mg/dL. It also gave a TC (72 h, time 3 day) of 73.8 mg/dL, a TG (72 h, time 3 day) of 85 mg/dL and a TP (72 h, time 3 day) of 5.6 g/dL. It also gave a gamma-GTP (72 h, time 3 day) of 1 IU/L, a TERMINAL_BW ([…], time 7 day) of 233.9 g and a TERMINAL_BW ([…], time 14 day) of 269.8 g. The TERMINAL_BW ([…], time 28 day) was 343.6 g, the APTT ([…], time 7 day) was 21.4 s and the Bas ([…], time 7 day) was 0%. It also gave an Eos ([…], time 7 day) of 1%, a Fbg ([…], time 7 day) of 312.6 mg/dL and a Hb ([…], time 7 day) of 14 g/dL. It also gave a Ht ([…], time 7 day) of 40.2%, a Lym ([…], time 7 day) of 79% and an MCH ([…], time 7 day) of 21.4 pg. It also gave an MCHC ([…], time 7 day) of 34.9%, an MCV ([…], time 7 day) of 61.3 fL and a Mono ([…], time 7 day) of 2.2%. For the same molecule, the Neu ([…], time 7 day) was 17%, the PT ([…], time 7 day) was 15.8 s and the Plat ([…], time 7 day) was 115.5 x10_4/uL. It also gave an RBC ([…], time 7 day) of 655.8 x10_4/ul, a Ret ([…], time 7 day) of 5.5% and a WBC ([…], time 7 day) of 121.2 x10_2/uL. The APTT ([…], time 14 day) was 22.5 s, the Bas ([…], time 14 day) was 0% and the Eos ([…], time 14 day) was 0.8%. For the same molecule, the Fbg ([…], time 14 day) was 325.2 mg/dL, the Hb ([…], time 14 day) was 14.6 g/dL and the Ht ([…], time 14 day) was 41%. The Lym ([…], time 14 day) was 77.4%, the MCH ([…], time 14 day) was 21.4 pg and the MCHC ([…], time 14 day) was 35.7%. It also gave an MCV ([…], time 14 day) of 59.9 fL, a Mono ([…], time 14 day) of 1.8% and a Neu ([…], time 14 day) of 19%. For the same molecule, the PT ([…], time 14 day) was 16.3 s, the Plat ([…], time 14 day) was 113.2 x10_4/uL and the RBC ([…], time 14 day) was 684.8 x10_4/ul. It also gave a Ret ([…], time 14 day) of 3.6%, a WBC ([…], time 14 day) of 82.1 x10_2/uL and an APTT ([…], time 28 day) of 24.6 s. The Bas ([…], time 28 day) was 0%, the Eos ([…], time 28 day) was 1% and the Fbg ([…], time 28 day) was 302.2 mg/dL. The Hb ([…], time 28 day) was 14.6 g/dL, the Ht ([…], time 28 day) was 42.3% and the Lym ([…], time 28 day) was 84.6%. It also gave an MCH ([…], time 28 day) of 19.4 pg, an MCHC ([…], time 28 day) of 34.4% and an MCV ([…], time 28 day) of 56.4 fL. The Mono ([…], time 28 day) was 1.6%, the Neu ([…], time 28 day) was 12% and the PT ([…], time 28 day) was 16.5 s. For the same molecule, the Plat ([…], time 28 day) was 116.9 x10_4/uL, the RBC ([…], time 28 day) was 749.8 x10_4/ul and the Ret ([…], time 28 day) was 2.7%. The WBC ([…], time 28 day) was 116.8 x10_2/uL, the KIDNEY_L ([…], time 7 day) was 1 g and the KIDNEY_R ([…], time 7 day) was 1 g. For the same molecule, the KIDNEY_TOTAL ([…], time 7 day) was 2 g, the KIDNEY_L ([…], time 14 day) was 1.1 g and the KIDNEY_R ([…], time 14 day) was 1.1 g. For the same molecule, the KIDNEY_TOTAL ([…], time 14 day) was 2.2 g, the KIDNEY_L ([…], time 28 day) was 1.3 g and the KIDNEY_R ([…], time 28 day) was 1.3 g. The KIDNEY_TOTAL ([…], time 28 day) was 2.5 g, the LIVER ([…], time 7 day) was 10.6 g and the LIVER ([…], time 14 day) was 11.4 g. The LIVER ([…], time 28 day) was 14.1 g, the A/G ([…], time 7 day) was 1.2 and the ALP ([…], time 7 day) was 1762.2 IU/L. For the same molecule, the ALT ([…], time 7 day) was 44.2 IU/L, the AST ([…], time 7 day) was 71.2 IU/L and the BUN ([…], time 7 day) was 19.8 mg/dL. The CRE ([…], time 7 day) was 0.1 mg/dL, the Ca ([…], time 7 day) was 10.5 mg/dL and the Cl ([…], time 7 day) was 107.6 meq/L. For the same molecule, the DBIL ([…], time 7 day) was 0 mg/dL, the GLC ([…], time 7 day) was 201 mg/dL and the IP ([…], time 7 day) was 7 mg/dL. The K ([…], time 7 day) was 4.1 meq/L, the LDH ([…], time 7 day) was 232 IU/L and the Na ([…], time 7 day) was 143.2 meq/L. It also gave a PL ([…], time 7 day) of 151.2 mg/dL, an RALB ([…], time 7 day) of 3.1 g/dL and a TBIL ([…], time 7 day) of 0.006 mg/dL. The TC ([…], time 7 day) was 74.8 mg/dL, the TG ([…], time 7 day) was 117.4 mg/dL and the TP ([…], time 7 day) was 5.7 g/dL. For the same molecule, the gamma-GTP ([…], time 7 day) was 1.2 IU/L, the A/G ([…], time 14 day) was 1.1 and the ALP ([…], time 14 day) was 1472 IU/L. It also gave an ALT ([…], time 14 day) of 34.6 IU/L, an AST ([…], time 14 day) of 61.4 IU/L and a BUN ([…], time 14 day) of 17.4 mg/dL. The CRE ([…], time 14 day) was 0.2 mg/dL, the Ca ([…], time 14 day) was 10.7 mg/dL and the Cl ([…], time 14 day) was 108 meq/L. For the same molecule, the DBIL ([…], time 14 day) was 0 mg/dL, the GLC ([…], time 14 day) was 185.4 mg/dL and the IP ([…], time 14 day) was 6.1 mg/dL. The K ([…], time 14 day) was 4.2 meq/L, the LDH ([…], time 14 day) was 145 IU/L and the Na ([…], time 14 day) was 143.8 meq/L. For the same molecule, the PL ([…], time 14 day) was 143.2 mg/dL, the RALB ([…], time 14 day) was 3.1 g/dL and the TBIL ([…], time 14 day) was 0.006 mg/dL. It also gave a TC ([…], time 14 day) of 74.2 mg/dL, a TG ([…], time 14 day) of 116.2 mg/dL and a TP ([…], time 14 day) of 5.9 g/dL. The gamma-GTP ([…], time 14 day) was 1 IU/L, the A/G ([…], time 28 day) was 1.1 and the ALP ([…], time 28 day) was 1129.8 IU/L. It also gave an ALT ([…], time 28 day) of 46.2 IU/L, an AST ([…], time 28 day) of 71.2 IU/L and a BUN ([…], time 28 day) of 19.2 mg/dL. For the same molecule, the CRE ([…], time 28 day) was 0.2 mg/dL, the Ca ([…], time 28 day) was 10.6 mg/dL and the Cl ([…], time 28 day) was 107.8 meq/L. For the same molecule, the DBIL ([…], time 28 day) was 0.002 mg/dL, the GLC ([…], time 28 day) was 185 mg/dL and the IP ([…], time 28 day) was 5.6 mg/dL. The K ([…], time 28 day) was 3.9 meq/L, the LDH ([…], time 28 day) was 181 IU/L and the Na ([…], time 28 day) was 141.8 meq/L. For the same molecule, the PL ([…], time 28 day) was 156.8 mg/dL, the RALB ([…], time 28 day) was 3.2 g/dL and the TBIL ([…], time 28 day) was 0.01 mg/dL. It also gave a TC ([…], time 28 day) of 79 mg/dL, a TG ([…], time 28 day) of 110.6 mg/dL and a TP ([…], time 28 day) of 6.1 g/dL. It also gave a gamma-GTP ([…], time 28 day) of 1.2 IU/L.
